US9718781B2, “Methods and compounds for treating proliferative disorders and viral infections” (University College Dublin, National University of Ireland, …, priority 2012, dated 2017)
Where two headings read alike, the source gives them in different places.

Target: T1, TPβ (Homo sapiens, UniProt P21731)
T1 construct: expressed in transfected cells
Test: U46619-induced [Ca2+]i mobilization in HEK.TPβ cells
Assay type: cell-based
Conditions: for remaining activity at 1 µM / remaining activity at 10 µM: % of agonist-induced response in vehicle-treated cells; for remaining activity at 1 µM: read-out: Percentage of Control, TPβ, 1 μM; for remaining activity at 10 µM: antagonist 10 μM, read-out: Percentage of Control, TPβ, 10 μM
How it was run: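 Fluo-4-loaded (3 μM, 1 h, 25° C.) HEK293 TPβ cells in KREBs-HEPES pH 7.4, pre-incubated 10 min with test compound, then stimulated with 1 μM U46619. Fluorescence at 520 nm followed for 75 s, calibrated by Fmax (2% Triton X100) and Fmin (1 mM EGTA).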

[1] = side-by-side comparison, n=6, Table 2.6, read-out: IC50 values for inhibition of U46619-mediated [Ca2+]i, TPβ

T1 sequence (P21731 1-407 isoform P21731-2): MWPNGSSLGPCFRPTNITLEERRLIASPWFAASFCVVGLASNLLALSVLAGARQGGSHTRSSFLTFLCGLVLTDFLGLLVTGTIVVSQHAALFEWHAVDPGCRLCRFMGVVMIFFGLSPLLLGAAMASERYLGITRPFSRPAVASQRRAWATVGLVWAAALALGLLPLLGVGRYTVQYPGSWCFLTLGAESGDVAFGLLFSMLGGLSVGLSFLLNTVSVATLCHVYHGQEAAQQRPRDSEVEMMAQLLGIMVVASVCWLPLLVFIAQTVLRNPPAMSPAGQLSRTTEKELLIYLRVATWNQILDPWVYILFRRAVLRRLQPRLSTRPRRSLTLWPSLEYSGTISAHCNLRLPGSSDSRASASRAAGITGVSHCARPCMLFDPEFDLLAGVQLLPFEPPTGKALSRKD

| Compound | activity class in HEK.TPβ cells (antagonist 1 μM, 1 μM U46619) | remaining activity at 1 µM (antagonist 1 μM, 1 μM U46619) | remaining activity at 10 µM (1 μM U46619) | IC50 [1] | inhibition of U46619-mediated responses (used at 0.5, HEK.TPβ cells) | reduction of U46619-mediated calcium mobilization responses (1 & 10 μM, HEK.TPβ cells) | IC50 (HEK.TPβ cells, 1 μM U46619, Table 2, read-out: IC50 data for U46619-mediated [Ca2+]i mobilization, TPβ) |
| --- | --- | --- | --- | --- | --- | --- | --- |
| COc1ccc(-c2cccc(Oc3ccc(C#N)cc3S(=O)(=O)NC(=O)NC(C)(C)C)c2)cc1 [NTP4, N-(tert-butylcarbamoyl)-5-cyano-2-((4′-methoxy-[1,1′-biphenyl]-3-yl)oxy)benzenesulfonamide] | ACTIVE | 22.5 ± 3.7% | 10.2 ± 0.95% | 60.4 ± 8 nM | greater than 50% |  |  |
| COc1ccc(-c2cccc(Oc3ccc([N+](=O)[O-])cc3S(=O)(=O)NC(=O)NC(C)(C)C)c2)cc1 [TP20, N-(tert-butylcarbamoyl)-2-((4′-methoxy-[1,1′-biphenyl]-3-yl)oxy)-5-nitrobenzene-sulfonamide] |  | 12.6 ± 1.46% | 9.96 ± 1.7% | 9.61 ± 1.46 nM |  | approx. 90% | 7.33 nM |
